{"source": "patent US20150250786A1", "about": "“PYRIMIDINE HYDROXY AMIDE COMPOUNDS AS PROTEIN DEACETYLASE INHIBITORS AND METHODS OF USE THEREOF” (THE TRUSTEES OF THE UNIVERSITY OF PENNSYLVANIA, priority 2012, published 2015)", "key": {"[1]": {"test_system": "RN46A-B14 serotonergic cell line", "experiment": "α-tubulin K40 acetylation in RN46A-B14 cells (Western blot)", "assay_type": "cell-based, rat", "conditions": "4 hours; TSA 0.6 μM, others 2.5 μM", "protocol": "In FIG. 3, it was observed that subchronic treatment, consisting of 5 treatments at 48, 28, 24, 4 and ½ hours before sacrifice, led to greater increase in tubulin acetylation than did chronic treatment of 1 injection/day for 21 days. For cell culture, RN46B cells were treated for with 0.25, 2.5 or 25 μM drug in DMSO for 1, 4 or 24 hours as indicated. Tukey post-hoc analysis: * P=0.01 to 0.05, ** P=0.001-0.01, ***P<0.001 when compared with vehicle treatment.\n(§1) Results are shown as percent change normalized to the vehicle treatment condition. The horizontal hard line depicts average and the dotted lines depict SEM of the vehicle treated wells. Representative Western blot images are presented. […] Representative Western blot images are presented. […] The drugs (5 mg/kg) were administered subchronically (at 24 h, 4 h and 30 min prior to sacrifice) to HDAC6 KO and WT littermates. The changes in tubulin acetylation were measured in tissue lysates from cortex (ctx), hippocampus (Hpc), dorsal Raphe nucleus (DRN) and cerebellum (cb). The tubulin acetylation levels in drug-treated mice are expressed as percent change of the vehicle-treated mice of the corresponding genotype. The horizontal lines depict the average tubulin acetylation±SEM in the vehicle treated mice. The representative Western blot images show the changes induced by each drug treatment in the hippocampus (left column) and dorsal raphe (right column) of WT and HDAC6 KO mice.\nIn contrast to the class I isoforms HDAC2 and 3, which are expressed highly and ubiquitously in the mouse brain, HDAC6 mRNA expression appears to be restricted to a small number of brain areas, with highest signal observed in DRN (FIG. 13f). […] No changes in total α-tubulin expression were detected (FIG. 14a)."}, "[2]": {"test_system": "RN46A-B14 serotonergic cell line", "experiment": "Histone H3K9 acetylation in RN46A-B14 cells (Western blot)", "assay_type": "cell-based, rat", "conditions": "2.5 μM, 4 hours"}, "[3]": {"test_system": "α-tubulin acetylation in mouse whole brain lysates", "experiment": "α-tubulin acetylation in whole brain lysates after single i.p. administration", "assay_type": "in vivo", "conditions": "compound 73 5 mg/kg, compound 101 50 mg/kg, tubastatin A 10 mg/kg, 30 min, 1 h, 4 h"}, "[4]": {"test_system": "α-tubulin K40 acetylation in cortex, hippocampus, DRN, cerebellum", "experiment": "α-tubulin acetylation in brain regions after subchronic administration, WT and HDAC6 KO mice", "assay_type": "in vivo, mouse", "protocol": "as §1, with “The drugs (5 mg/kg) were administered subchronically (at 24 h, 4 h and 30 min prior to sacrifice) to HDAC6 KO and WT littermates.” left out"}, "[5]": {"test_system": "histone H3 lysine 9 acetylation", "experiment": "Histone H3K9 acetylation in vivo (Western blot, ChIP)", "parameters": "species or system mouse"}, "[6]": {"test_system": "mice", "experiment": "Open-field test", "assay_type": "in vivo, mouse"}, "[7]": {"test_system": "mice", "experiment": "Marble-burying task", "assay_type": "in vivo, mouse", "conditions": "acute administration"}, "[8]": {"test_system": "mice", "experiment": "NIH test", "assay_type": "in vivo, mouse", "conditions": "acute, 50 mg/kg"}, "[9]": {"test_system": "mice", "experiment": "Elevated plus maze (EPM)", "assay_type": "in vivo, mouse", "conditions": "acute administration"}, "[10]": {"test_system": "NIH Swiss mice; C57BL/6J HDAC6 WT and KO mice", "experiment": "Tail suspension test (TST)", "assay_type": "in vivo, mouse", "conditions": "for immobility in TST: NIH Swiss mice"}, "[11]": {"test_system": "mice", "experiment": "Chronic social defeat (CSD) and social interaction test", "assay_type": "in vivo, mouse", "conditions": "compound 73 5 mg/kg", "protocol": "Additionally, when combined with a dose of Citalopram with lower activity, these compounds seemed to have an additive effect (See FIG. 10). The dose of Citalopram chosen for this experiment was based on literature stating 2 mg/kg should be subactive, but this dose was found still showing an effect. Mice then underwent chronic social defeat stress, in which the mice are exposed to an aggressive resident mouse for 5 minutes daily for 10 days and are then tested on the 11th day in the social interaction test. Mice treated with vehicle for 20 total days, beginning 10 days before the defeat, show reduced time spent in the interaction zone when a target mouse is present when compared with control mice. […] The percent of mice found to be resilient, defined as spending more time in the interaction zone than the lowest control (i.e. ˜52 s), is higher in HDAC6 inhibitor groups. All behavior testing done using NIH Swiss mice, age 6-10 weeks. Tukey post-hoc analysis: * P=0.01 to 0.05, ** P=0.001-0.01, ***P<0.001 compared with vehicle treated mice.\nThe effects were observed 30 minutes after acute 50 mg/kg i.p. injection, but not for the lower dose (5 mg/kg). Combination of subactive doses of the HDAC6 selective inhibitors (5 mg/kg) and citalopram (0.5 mg/kg) produced robust potentiation of anti-immobility activity (n=8-29 per condition). […] No difference was observed between HDAC6 WT and KO when treated with the vehicle (n=6-15 per condition). FIG. 16c is a timeline showing treatment period, social defeat and social interaction (SI) testing.\nA pro-resilient phenotype in the mouse CSD paradigm after serotonin-selective KO of HDAC6 was previously reported (Espallergues et al, 2012). Whether a chronic pharmacological inhibition of HDAC6 can replicate that phenotype is studied. […] On day 21, 24 h after the last injection, the mice were tested in the social interaction test. […] Significant effects were also observed when data was evaluated in terms of proportion of mice reaching criterion for resiliency."}, "[12]": {"experiment": "Pharmacokinetics and brain bio-distribution in mice", "assay_type": "in vivo, mouse", "conditions": "mouse; for Kp: brain, calculated over 2 hours", "protocol": "[…] Plasma samples were taken from all mice upon sacrifice. Brain samples were taken from the mice sacrificed at 5 and 15 minutes and 1 and 4 hours. The brain samples were homogenized in PBS and centrifuged at 14000 rpm for 5 minutes. The supernatant from the brain homogenate and the plasma samples were injected onto a LC/MS/MS for analysis. The compound level in the samples was determined by a standard curve in the appropriate matrix. Pharmacokinetic parameters were determined from the raw data by WinNonLin."}, "[13]": {"experiment": "Body weight gain during chronic treatment", "assay_type": "in vivo, mouse", "conditions": "4 weeks of treatment"}}, "note": "Where “and” joins values, the source holds several entries; their conditions need not be identical. Identical values can stand only once. Like-named read-outs stand apart in the source and are kept apart here.", "data": [{"compound": "O=C(NO)c1cnc(NC2(c3ccccc3)CC2)nc1", "note": "[Compound 73, N-hydroxy-2-((1-phenylcyclopropyl)amino)pyrimidine-5-carboxamide]", "values": [{"measurement": "acetylated (lysine 40) fraction of α-tubulin", "setting": "[1]", "value": "increases"}, {"measurement": "change in histone H3K9 acetylation", "setting": "[2]", "value": "no significant change"}, {"measurement": "α-tubulin acetylation in whole brain lysates", "setting": "[3]", "value": "significant increases"}, {"measurement": "α-tubulin acetylation over baseline levels", "setting": "[4]; HDAC6 KO mice, identical treatment regimens", "value": "did not produce increases"}, {"measurement": "α-tubulin acetylation in cortex, hippocampus, DRN, cerebellum", "setting": "[4]; wild-type mice, 24 h, 4 h, 30 m before sacrifice, compound 73 5 mg/kg, compound 101 50 mg/kg", "value": "significant increases"}, {"measurement": "histone H3K9 acetylation enrichment at promoter DNA (cFOS, BDNF promoter 4), ChIP", "setting": "[5]; hippocampus, repeated i.p., compound 73 5 mg/kg, sodium butyrate 1.2 g/kg", "value": "no concurrent changes"}, {"measurement": "acetylation of histone 3 at lysine 9 in Western blot", "setting": "[5]; in vivo treatment", "value": "did not significantly alter"}, {"measurement": "exploratory activity in novel open-field arena", "setting": "[6]; acute, compounds 73, 101 50 mg/kg, tubastatin A 10 mg/kg", "value": "hyperlocomotor effects"}, {"measurement": "distance in the center of the open field", "setting": "[6]; mouse, in vivo", "value": "602±96", "unit": "beam breaks"}, {"measurement": "number of marbles buried", "setting": "[7]", "value": "significantly reduced"}, {"measurement": "latency to eat in the NIH test", "setting": "[8]", "value": "significantly decreased"}, {"measurement": "behavioral changes / time in the open arms of the maze", "setting": "[9]", "value": "neither compound 73 nor compound 101 produced behavioral changes"}, {"measurement": "immobility in TST", "setting": "[10]; 5 mg/kg", "value": "No significant effect"}, {"measurement": "activity in TST two hours after the injection", "setting": "[10]; 20 mg/kg citalopram, 50 mg/kg compound 73", "value": "still had significant activity"}, {"measurement": "immobility in TST", "setting": "[10]; 50 mg/kg i.p., 30 minutes", "value": "Significant reductions"}, {"measurement": "anti-immobility effect in HDAC6 KO mice", "setting": "[10]; C57BL/6J background, versus WT littermates", "value": "no significant effect"}, {"measurement": "anti-immobility effects in C57BL/6J WT mice", "setting": "[10]; mouse, in vivo", "value": "still significant"}, {"measurement": "time in the interaction zone versus vehicle, defeated mice", "setting": "[11]; 20 days treatment, fluoxetine 20 mg/kg, compound 101 50 mg/kg", "value": "significantly higher"}, {"measurement": "percentage of resilient mice", "setting": "[11]; after CSD, fluoxetine 20 mg/kg, compound 101 50 mg/kg", "value": 81, "unit": "%"}, {"measurement": "time spent in the corner zones", "setting": "[11]; versus vehicle", "value": "decrease"}, {"measurement": "Kp", "setting": "[12]; C57BL/6J, intraperitoneal, read-out: AUCBrain/AUCplasma", "value": 1.22}, {"measurement": "concentration at 30 min", "setting": "[12]; C57BL/6J, plasma, intraperitoneal, 5 mg/kg, read-out: 30 min plasma concentration (ng/ml) - 5 mg/kg", "value": 89, "unit": "ng/mL"}, {"measurement": "concentration at 30 min", "setting": "[12]; C57BL/6J, plasma, intraperitoneal, 50 mg/kg, read-out: 30 min plasma concentration (ng/ml) - 50 mg/kg", "value": 515, "unit": "ng/mL"}, {"measurement": "Cmax", "setting": "[12]; C57BL/6J, plasma, ip, 5 mg/kg, mice, acute i.p. dosing, read-out: Cmax", "value": 494, "unit": "ng/mL"}, {"measurement": "half-life", "setting": "[12]; C57BL/6J, plasma, ip, mice, acute i.p. dosing, read-out: T½ plasma (converted)", "value": 12, "unit": "min"}, {"measurement": "Kp", "setting": "[12]; intraperitoneal, read-out: AUCBrain/AUCplasma ratio", "value": "> 1"}, {"measurement": "concentration at 30 min", "setting": "[12]; plasma, intraperitoneal, acute 50 mg/kg injection, read-out: plasma level at t=30 minutes", "value": "515 ng/mL and 1.9 µM"}, {"measurement": "concentration at 2 h", "setting": "[12]; plasma, intraperitoneal, read-out: plasma concentration after two hours", "value": "< 10", "unit": "ng/mL"}, {"measurement": "half-life", "setting": "[12]; plasma, intraperitoneal, read-out: plasmatic half-life", "value": 12, "unit": "min"}, {"measurement": "body weight gain", "setting": "[13]", "value": "no significant effect"}]}]}
